Test systems include NCI/ADR-RES; SNB-75; RPMI-8226; COLO 205; OVCAR-4; CAKI-1; TK-10; KM12; NCI-H226; SW-620; OVCAR-5; UO-31; K562; Hs-578T; PC-3; UACC-257; SNB-19; HL-60; HCT-15; 786-0.
What all share (test): inhibition of tumour cell growth, NCI panel, 48 h

Molecules are shown by their SMILES.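 The compound was tested at five concentrations on cells cultured in 96-well plates, with a 48-hour exposure period. The concentration for 50% growth inhibition is given as GI50.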 Activity calls are given as the source filed them. No stated cut-off is given here; in the data, active = GI50 up to about 1.1 µM and inactive = higher. Where only a bound is given, the exact number is not on record here.

Consider ten compounds from ChEMBL document CHEMBL1201862, “PubChem BioAssay data set” (2004).

For `COc1c(C2(c3ccc(F)cc3)SCCCS2)c(=O)c1=O`, the GI50 in the experiment with NCI/ADR-RES, in the experiment with SNB-75, in the experiment on RPMI-8226, in the experiment with COLO 205, with OVCAR-4 and in the experiment with CAKI-1 was > 100 µM (inactive) throughout. In addition, the GI50 with TK-10, in the experiment with KM12, in the experiment on NCI-H226, in the experiment with SW-620, with OVCAR-5 and in the experiment on UO-31 was > 100 µM (inactive) in each case. The GI50 in the experiment with K562 is > 100 µM (inactive); in the experiment with Hs-578T it was > 100 µM (inactive); in the experiment on PC-3, > 100 µM (inactive); in the experiment with UACC-257 it was > 100 µM (inactive); in the experiment on SNB-19 it was > 100 µM (inactive); in the experiment with HL-60 it was 31.6 µM (inactive). The GI50 was over 100 µM with HCT-15 and > 100 µM (inactive) in the experiment with 786-0.

Regarding `Cc1c(C)c2c(c(N)c1C#N)C(=O)N(NC(=S)Nc1ccccc1)C2=O`, the GI50 was 71.3 µM (inactive) in the experiment with NCI/ADR-RES; 39 µM (inactive) in the experiment with SNB-75; 43.3 µM (inactive) with RPMI-8226; 79.4 µM (inactive) in the experiment on COLO 205; > 100 µM (inactive) with OVCAR-4; 18.2 µM (inactive) in the experiment with CAKI-1. The GI50 in the experiment on TK-10 is > 100 µM (inactive); with KM12 it was 91.4 µM (inactive); in the experiment on NCI-H226 it was 42.8 µM (inactive); in the experiment on SW-620, 57.5 µM (inactive); in the experiment with OVCAR-5, > 100 µM (inactive); with UO-31, 44.4 µM (inactive). In addition, the GI50 was > 100 µM (inactive) in the experiment with K562; 42.1 µM (inactive) in the experiment with Hs-578T; > 100 µM (inactive) in the experiment on PC-3; > 100 µM (inactive) in the experiment with UACC-257; 56.6 µM (inactive) in the experiment on SNB-19; 86.9 µM (inactive) in the experiment with HL-60. Besides, the GI50 is 67.8 µM in the experiment on HCT-15 and 44.1 µM (inactive) in the experiment with 786-0.

For `CCCCCCCCCCCCOCCCCCCCCC/C=C/c1ccc2c(c1)OCCOCCOCCOCCO2`, the GI50 in the experiment with NCI/ADR-RES is 17.5 µM (inactive); in the experiment with SNB-75, 16.4 µM (inactive); with RPMI-8226, 17.7 µM (inactive); in the experiment on COLO 205, 18.9 µM (inactive); with OVCAR-4 it was 19.3 µM (inactive); in the experiment with CAKI-1, 17.3 µM (inactive). In addition, the GI50 in the experiment on TK-10 is 19.6 µM (inactive); in the experiment on KM12, 16.8 µM (inactive); in the experiment with NCI-H226, 17.8 µM (inactive); in the experiment with SW-620, 30.3 µM (inactive); in the experiment on OVCAR-5, 31 µM (inactive); in the experiment on UO-31, 19.1 µM (inactive). For the same compound, the GI50 was 31.3 µM (inactive) in the experiment on K562; 16.4 µM (inactive) with Hs-578T; 17.9 µM (inactive) with PC-3; 27 µM (inactive) in the experiment with UACC-257; 33.3 µM (inactive) with SNB-19; 28.8 µM (inactive) in the experiment with HL-60. The GI50 with HCT-15 is 45.9 µM; in the experiment on 786-0, 13.6 µM (inactive).

Consider `Cc1ccc(C[N+](C)(C)N)cc1C`, for which the GI50 in the experiment with NCI/ADR-RES, with SNB-75, with RPMI-8226, with COLO 205, with OVCAR-4 and in the experiment on CAKI-1 was > 10 µM (inactive) throughout. Further, the GI50 in the experiment with TK-10, in the experiment with KM12, with NCI-H226, in the experiment on SW-620, in the experiment on OVCAR-5 and with UO-31 was > 10 µM (inactive) in each case. The GI50 with K562, in the experiment with Hs-578T, in the experiment on PC-3, in the experiment on UACC-257, in the experiment on SNB-19 and in the experiment on HL-60 was > 10 µM (inactive) throughout. Moreover, the GI50 in the experiment with HCT-15 was over 10 µM; with 786-0, > 10 µM (inactive).

In the case of `O=C(N/N=C\c1ccc([N+](=O)[O-])s1)c1ccncc1`, the GI50 with NCI/ADR-RES is 22.8 µM (inactive); in the experiment on SNB-75, 19.4 µM (inactive); in the experiment on RPMI-8226, 5.62 µM (inactive); with COLO 205, 2.13 µM (inactive); with OVCAR-4 it was 15 µM (inactive); in the experiment with CAKI-1, 27.9 µM (inactive). For the same compound, the GI50 in the experiment on TK-10 is 23.1 µM (inactive); in the experiment with KM12, 10 µM (inactive); in the experiment with NCI-H226, 5.15 µM (inactive); in the experiment on SW-620, 10.8 µM (inactive); with OVCAR-5 it was 29.9 µM (inactive); with UO-31 it was 17.2 µM (inactive). Also, the GI50 was > 10 µM (inactive) in the experiment on K562; 15.8 µM (inactive) in the experiment with Hs-578T; 11.6 µM (inactive) with PC-3; 14.6 µM (inactive) with UACC-257; 33.4 µM (inactive) in the experiment on SNB-19; 2.38 µM (inactive) in the experiment with HL-60. For the same compound, the GI50 was 5.27 µM in the experiment with HCT-15 and 6.67 µM (inactive) with 786-0.

On to `Nc1nc(SCC(=O)O)nc(O)c1N`, for which the GI50 in the experiment with NCI/ADR-RES is > 100 µM (inactive); in the experiment with SNB-75, 50.2 µM (inactive); with RPMI-8226, 32.7 µM (inactive); in the experiment with COLO 205, > 100 µM (inactive); with OVCAR-4 it was 50.9 µM (inactive); in the experiment on CAKI-1 it was > 100 µM (inactive). Further, the GI50 was > 100 µM (inactive) with TK-10; > 100 µM (inactive) with KM12; > 100 µM (inactive) in the experiment with NCI-H226; 31 µM (inactive) in the experiment with SW-620; > 100 µM (inactive) in the experiment with OVCAR-5; > 100 µM (inactive) with UO-31. Also, the GI50 was 13.6 µM (inactive) in the experiment on K562; > 100 µM (inactive) in the experiment on Hs-578T; > 100 µM (inactive) in the experiment on PC-3; 70.5 µM (inactive) with UACC-257; > 100 µM (inactive) with SNB-19; 56.1 µM (inactive) in the experiment on HL-60. The GI50 with HCT-15 was over 100 µM; in the experiment with 786-0, 41.6 µM (inactive).

On to `CC(=O)Nc1ccc2c3c(cc(O)c2c1)N(C(=O)CCCCCC(=O)N1CC(CCl)c2c1cc(O)c1cc(NC(C)=O)ccc21)CC3CCl` (stereo not given), for which the GI50 is 1.38 µM (inactive) with NCI/ADR-RES; < 0.01 µM (active) in the experiment on SNB-75; 0.0296 µM (active) in the experiment on RPMI-8226; 0.016 µM (active) with COLO 205; 0.181 µM (active) in the experiment on OVCAR-4; 0.0123 µM (active) in the experiment on CAKI-1. The GI50 was 0.169 µM (active) in the experiment with TK-10; 0.0416 µM (active) in the experiment with KM12; < 0.0149 µM (active) in the experiment with NCI-H226; 0.13 µM (active) in the experiment on SW-620; 0.101 µM (active) in the experiment with OVCAR-5; 0.105 µM (active) with UO-31. Besides, the GI50 with K562 was 0.0625 µM (active); with Hs-578T, 0.0362 µM (active); in the experiment with PC-3 it was 0.045 µM (active); in the experiment on UACC-257 it was 0.0168 µM (active); in the experiment with SNB-19 it was < 0.01 µM (active); in the experiment with HL-60, 0.115 µM (active). In addition, the GI50 in the experiment with HCT-15 was 0.377 µM; in the experiment on 786-0, < 0.01 µM (active).

For the compound `CC1=C(CCC(C)CO)O[C@H]2C[C@H]3[C@@H]4CC[C@H]5C[C@@H](O)CC[C@]5(C)[C@H]4CC(=O)[C@]3(C)[C@@H]12` (stereo not given in full), the GI50 is 9.48 µM (inactive) with NCI/ADR-RES; 20.6 µM (inactive) in the experiment on SNB-75; 2.4 µM (inactive) in the experiment on RPMI-8226; 8.97 µM (inactive) in the experiment with COLO 205; 25.2 µM (inactive) in the experiment on OVCAR-4; 27.7 µM (inactive) in the experiment on CAKI-1. The GI50 is 19.8 µM (inactive) in the experiment with TK-10; 11.3 µM (inactive) with KM12; 27.2 µM (inactive) in the experiment on NCI-H226; 35.6 µM (inactive) in the experiment on SW-620; 27.4 µM (inactive) in the experiment with OVCAR-5; 12.4 µM (inactive) in the experiment on UO-31. The GI50 in the experiment with K562 was 10.4 µM (inactive); with Hs-578T, 17.1 µM (inactive); in the experiment on PC-3, 5.08 µM (inactive); with UACC-257 it was 14.8 µM (inactive); with SNB-19 it was 22.3 µM (inactive); in the experiment on HL-60, 2.94 µM (inactive). The GI50 with HCT-15 was 17.1 µM; with 786-0, 20.7 µM (inactive).

Take `CC(=O)N1C(CCc2ccccc2)CC(C)(C=O)C1Cc1ccc(O[Si](C(C)C)(C(C)C)C(C)C)cc1` (stereo not given): the GI50 in the experiment with NCI/ADR-RES was 8.81 µM (inactive); in the experiment with SNB-75 it was 3.92 µM (inactive); with RPMI-8226, 2.07 µM (inactive); in the experiment on COLO 205 it was 2.93 µM (inactive); in the experiment with OVCAR-4, 3.7 µM (inactive); with CAKI-1, 3.05 µM (inactive). For the same compound, the GI50 with TK-10 is 3.68 µM (inactive); in the experiment with KM12, 3.02 µM (inactive); with NCI-H226, 6.76 µM (inactive); in the experiment with SW-620 it was 3.21 µM (inactive); in the experiment on OVCAR-5, 14.7 µM (inactive); in the experiment on UO-31, 3.21 µM (inactive). The GI50 was 2.72 µM (inactive) in the experiment with K562; 3.28 µM (inactive) with Hs-578T; 3.18 µM (inactive) with PC-3; 5.11 µM (inactive) in the experiment with UACC-257; 4.83 µM (inactive) with SNB-19; 1.76 µM (inactive) with HL-60. For the same compound, the GI50 in the experiment with HCT-15 is 3.03 µM; with 786-0 it was 2.38 µM (inactive).

In the case of `Cc1ccc(SCN2CCCCC2)cc1.O=C(Cl)c1ccc([N+](=O)[O-])cc1`, the GI50 in the experiment on NCI/ADR-RES is 14 µM (inactive); in the experiment with SNB-75, 9.42 µM (inactive); in the experiment with RPMI-8226 it was 5.78 µM (inactive); in the experiment with COLO 205, 4.86 µM (inactive); in the experiment on OVCAR-4 it was 12.4 µM (inactive); with CAKI-1, 8.87 µM (inactive). For the same compound, the GI50 is 19.4 µM (inactive) in the experiment with TK-10; 10.8 µM (inactive) in the experiment with KM12; 16.6 µM (inactive) with NCI-H226; 18.5 µM (inactive) in the experiment on SW-620; 10.7 µM (inactive) in the experiment on OVCAR-5; 15.2 µM (inactive) with UO-31. Moreover, the GI50 is 13.8 µM (inactive) with K562; 10.4 µM (inactive) in the experiment on Hs-578T; 12.2 µM (inactive) with PC-3; 14.6 µM (inactive) with UACC-257; 19.2 µM (inactive) in the experiment on SNB-19; 1.67 µM (inactive) in the experiment on HL-60. Moreover, the GI50 with HCT-15 was 9.77 µM; in the experiment with 786-0 it was 15.1 µM (inactive).
